14 compounds from EP4647433A1, “SHP2 INHIBITOR AND USES THEREOF” (Kanaph Therapeutics Inc., priority 2023, dated 2024) can be followed below.

The target in one data set is T1, SHP2 (Homo sapiens, UniProt Q06124).
T1 construct: SHP2 (full length, diluted to 100 pM final concentration in reaction buffer, BPS bioscience, US); purchased BPS bioscience, US
T1 sequence (Q06124 1-593): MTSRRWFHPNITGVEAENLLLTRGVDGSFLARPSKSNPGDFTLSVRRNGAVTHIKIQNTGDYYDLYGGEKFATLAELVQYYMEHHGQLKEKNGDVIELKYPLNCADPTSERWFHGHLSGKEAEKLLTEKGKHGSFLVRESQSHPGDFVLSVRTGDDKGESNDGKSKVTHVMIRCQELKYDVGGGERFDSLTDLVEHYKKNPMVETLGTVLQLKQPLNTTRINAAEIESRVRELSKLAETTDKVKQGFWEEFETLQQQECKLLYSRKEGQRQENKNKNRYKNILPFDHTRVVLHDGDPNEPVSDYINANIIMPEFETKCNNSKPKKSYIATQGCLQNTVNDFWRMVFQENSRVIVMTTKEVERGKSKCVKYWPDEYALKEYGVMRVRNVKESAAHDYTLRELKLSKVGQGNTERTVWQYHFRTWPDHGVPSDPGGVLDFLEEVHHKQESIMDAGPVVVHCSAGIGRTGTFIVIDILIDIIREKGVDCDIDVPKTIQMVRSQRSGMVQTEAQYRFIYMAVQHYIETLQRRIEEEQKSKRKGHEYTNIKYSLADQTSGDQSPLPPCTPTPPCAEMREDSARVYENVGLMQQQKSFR
As to the kind of experiment: Phosphatase assay (PTPase assay, DiFMUP substrate). It is filed as biochemical. How it is done: IC50 values were measured using 6,8-difluoro-4-methylumbelliferyl phosphate (DiFMUP) as a substrate. The reaction was performed in a 384-well plate, and fluorescence measurement values were obtained using an EnVision plate reader from PerkinElmer.
SHP2 (full length, diluted to 100 pM final concentration in reaction buffer, BPS bioscience, US) was incubated with the SHP2 activating peptide in reaction buffer (60 mM HEPES (pH 7.2), 75 mM NaCl, 75 mM KCl, 1 mM EDTA, 5 mM DTT, 0.05% P-20) for 30 minutes to activate SHP2. After activation, DMSO [1% (V/V) or the compound according to the Examples (concentration ranging from 0.6 nM to 10 µM)] was added. As a positive control group, the selective SHP2 inhibitors SHP099 (6-(4-amino-4-methylpiperidin-1-yl)-3-(2,3-dichlorophenyl)pyrazin-2-amine, FOCUS bioscience, Austrailia; concentration ranging from 0.6 nM to 10 µM) and TNO155 ((3S,4S)-8-(6-amino-5-((2-amino-3-chloropyridin-4-yl)thio)pyrazin-2-yl)-3-methyl-2-oxa-8-azaspiro[4.5]decan-4-amine, Chemietek, US; concentration ranging from 0.6 nM to 10 µM) were used. [drawing 184]
DiFMUP (80 µM) was added to the reaction and incubated for a total of 2 hours to allow for the reaction to proceed. Thereafter, fluorescence (340 nm excitation, 450 nm emission) values were measured. IC50 values were obtained using Graphad's Prism from the measured values depending on the concentration.
In the phosphatase assay (PTPase assay), when an IC50 value was 100 nM or more, + was indicated, when an IC50 value was 3 nM or more and less than 100 nM, ++ was indicated, and when an IC50 value was less than 3 nM, +++ was indicated.

The subject of the next data set is phospho-ERK. As to the kind of experiment: phospho-ERK assay (AlphaLisa) in H358 cells. Format: cell-based. As to conditions: Homo sapiens, NCI-H358, 1.5 hours incubation, read-out: pERK assay (IC50). How it is done: H358 [20,000 cell/well] was contained in 40 µL of the cell culture solution (RPMI, 10% FBS, penicillin, streptomycin) and placed on a 384-well plate. After 24 hours, the serially diluted compound according to the Examples (concentration of minimum 0.13 nM, maximum 10 µM) was contained in 10 µL of the cell culture solution, put into wells containing cells, and incubated in a cell incubator for 1.5 hours. As a positive control group, the selective SHP2 inhibitor, TNO155 (Chemietek, US; concentration ranging from 0.13 nM to 10 µM) was used.
Thereafter, phospho-ERK was labeled using an AlphaLisa system from PerkinElmer according to the manufacturer's instructions, and then fluorescence (680 nm excitation wavelength, 615 nm emission wavelength) values were measured using a Varioskan equipment from Thermo. IC50 values were obtained using Graphad's Prism from the measured values depending on the concentration.
Intracellular SHP2 activity can be confirmed by measuring the degree of phosphorylation of ERK (extracellular signal regulated kinase), which represents Ras/Raf/ERK, a downstream signal pathway of SHP2. Inhibition of ERK phosphorylation by SHP2 inhibitors was confirmed through phospho-ERK analysis, which confirmed that the SHP2 inhibitors of the present disclosure have excellent activity in inhibiting ERK phosphorylation mediated by SHP2.
On the technique in general: Bead proximity is the source of the signal in Alpha formats.

For a further data set, the system named is H358 cells. As to the kind of experiment: Cell viability (3D spheroid, 3D CellTiter-Glo). Format: cell-based. As to conditions: Homo sapiens, NCI-H358, 120 h; H358 spheroids, 5 days treatment. The procedure:
Human non-small cell lung cancer cell line H358 cells were purchased from the Korean Cell Line Bank. Cancer cell lines were cultured in the recommended RPMI-1640 medium supplemented with 10% fetal bovine serum (FBS) and 1% penicillin/streptomycin. Monolayer-cultured cancer cell lines were detached by treatment with Trypsin/EDTA, and 100 µL of cell suspension containing 4 x 10^3 cells was each dispensed into SPL3D™ Cell Floater, 96-well round plate, through cell line counting. After culturing for 72 hours to form spheroid, the cells were individually treated with the compounds according to the Examples, which had been serially diluted (minimum 1.5 nM, maximum 10 µM in concentration), and then cultured in a cell incubator for 5 days. To analyze cell viability, the cells were treated with 50 uL of 3D CellTiter-Glo, stirred for 5 minutes at 500 rpm in a plate shaker from Thermo Fisher Scientific, and incubated for 25 minutes at room temperature. Then, the luminescent values were measured using a Varioskan equipment from Thermo Fisher Scientific. IC50 values were obtained using GraphPad's Prism from the measured values depending on the concentration.
In the cell viability assay, when an IC50 value was 50 nM or more, + was indicated, when an IC50 value was 10 nM or more and less than 50 nM, ++ was indicated, and when an IC50 value was less than 10 nM, +++ was indicated.

Data set [1] in a line: Brain-plasma Pharmacokinetics. To be noted: male, CD-1 (ICR), mouse, brain/plasma, 20 mg/kg.
Method: Nine male CD-1 mice (ICR mouse) aged 6 to 9 weeks were treated with the compounds according to the Examples at a concentration of 20 mg/kg. 0.025 mL of blood and brain tissue were collected at 1 hour, 8 hours, and 24 hours post-treatment, respectively. The collected blood was placed in an EDTA-K2 tube, centrifuged at 4°C at 3,200 x g for 10 minutes, and the supernatant plasma was collected. The brain tissue samples were collected immediately after euthanizing the CD-1 mice after blood collection and performing cardiac perfusion with cold saline. After collection, the brain tissues were washed with cold saline, wiped and dried, weighed, and homogenized using a homogenization buffer (15 mM PBS (pH 7.4): MeOH = 2:1) at a ratio of 1:3 (1 g of tissue to 3 mL of buffer, dilution ratio 4). Plasma and homogenized brain tissue samples were each transferred to a polypropylene microcentrifuge tube and stored at -60°C or lower. The concentration of compounds distributed in plasma and brain tissue was analyzed using LC-MS/MS, and the distribution in brain tissue compared to plasma was calculated as follows. Brain-to-plasma ratio = AUC(0-t) brain tissue /AUC(0-t) plasma [formula]
In the Brain-plasma Pharmacokinetics assay, when a brain-to-plasma ratio value was 0.05 or more and less than 0.1, + was indicated, when a brain-to-plasma ratio value was 0.1 or more and less than 0.25, ++ was indicated, and when a brain-to-plasma ratio value was more than 0.25, +++ was indicated.
Where [2] appears, read: full length SHP2 100 pM activated with SHP2 activating peptide, DiFMUP 80 µM, 2 hours; read-out: PTPase assay (IC50).

Molecules are shown by their SMILES. Where two headings read alike, the source gives them in different places.

Consider `COCCn1cnc2ccc(Sc3ncc(N4CCC5(CC4)Cc4ccccc4[C@H]5N)nc3N)c(Cl)c2c1=O` [Example 8, (S)-6-((3-amino-5-(1-amino-1,3-dihydrospiro[indene-2,4'-piperidin]-1'-yl)pyrazin-2-yl)thio)-5-chloro-3-(2-methoxyethyl)quinazolin-4(3H)-one], for which the values for the IC50 on SHP2 (setting [2]) and in the data set on phospho-ERK were below 3 nM and below 45 nM, respectively.
For `Cn1cnc2ccc(Sc3ncc(N4CCC5(CC4)Cc4ccccc4[C@H]5N)nc3N)c(Cl)c2c1=O` [Example 10], in that order: below 3 nM and below 45 nM.
For `N[C@@H]1c2scnc2CC12CCN(c1cnc(Sc3ccc4nc[nH]c(=O)c4c3Cl)cn1)CC2` [Example 1, (S)-6-((5-(6-amino-4,6-dihydrospiro[cyclopenta[d]thiazole-5,4'-piperidin]-1'-yl)pyrazin-2-yl)thio)-5-chloroquinazolin-4(3H)-one], in that order: below 3 nM and below 45 nM.
Take `CC(C)n1cnc2ccc(Sc3cnc(N4CCC5(CC4)Cc4ncsc4[C@H]5N)cn3)c(Cl)c2c1=O` [Example 4, (S)-6-((5-(6-amino-4,6-dihydrospiro[cyclopenta[d]thiazole-5,4'-piperidin]-1'-yl)pyrazin-2-yl)thio)-5-chloro-3-isopropylquinazolin-4(3H)-one]: the concentration for half-maximal inhibition (IC50) (in general, the concentration that inhibits the measured activity by half) at SHP2 (setting [2]) is below 3 nM; with H358 cells it was below 10 nM; with phospho-ERK, below 45 nM.
In the case of `C[C@@H]1OCC2(CCN(c3cnc(Sc4ccc5ncn(CC6CCN(C)CC6)c(=O)c5c4Cl)cn3)CC2)[C@@H]1N` [Example 26, 6-((5-((3S,4S)-4-amino-3-methyl-2-oxa-8-azaspiro[4.5]decan-8-yl)pyrazin-2-yl)thio)-5-chloro-3-((1-methylpiperidin-4-yl)methyl)quinazolin-4(3H)-one], the IC50 is 3 to 100 nM at SHP2 (setting [2]) and below 10 nM with H358 cells.
On to `COC(C)Cn1cnc2ccc(Sc3ncc(N4CCC5(CC4)Cc4ccccc4[C@H]5N)nc3N)c(Cl)c2c1=O` (stereo partly drawn) [Example 9, 6-((3-amino-5-((S)-1-amino-1,3-dihydrospiro[indene-2,4'-piperidin]-1'-yl)pyrazin-2-yl)thio)-5-chloro-3-(2-methoxypropyl)quinazolin-4(3H)-one], for which the figures for the IC50 on SHP2 (setting [2]) and with phospho-ERK were below 3 nM and below 45 nM, respectively.
Take `CC(C)(O)Cn1cnc2ccc(Sc3ncc(N4CCC5(CC4)Cc4ccccc4[C@H]5N)nc3N)c(Cl)c2c1=O` [Example 11, (S)-6-((3-amino-5-(1-amino-1,3-dihydrospiro[indene-2,4'-piperidin]-1'-yl)pyrazin-2-yl)thio)-5-chloro-3-(2-hydroxy-2-methylpropyl)quinazolin-4(3H)-one]: the IC50 is below 3 nM on SHP2 (setting [2]) and below 10 nM in the data set with H358 cells.
Turning to `CCn1cnc2ccc(Sc3cnc(N4CCC5(CC4)Cc4ncsc4[C@H]5N)cn3)c(Cl)c2c1=O` [Example 3, (S)-6-((5-(6-amino-4,6-dihydrospiro[cyclopenta[d]thiazole-5,4'-piperidin]-1'-yl)pyrazin-2-yl)thio)-5-chloro-3-ethylquinazolin-4(3H)-one], the IC50 at SHP2 (setting [2]) was below 3 nM; in the data set with H358 cells it was below 10 nM; in the data set with phospho-ERK it was below 45 nM.
For `COC(C)Cn1c(C)nc2ccc(Sc3cnc(N4CCC5(CC4)CO[C@@H](C)[C@H]5N)cn3)c(Cl)c2c1=O` (stereo partly drawn) [Example 39, 6-((5-((3S,4S)-4-amino-3-methyl-2-oxa-8-azaspiro[4.5]decan-8-yl)pyrazin-2-yl)thio)-5-chloro-3-(2-methoxypropyl)-2-methylquinazolin-4(3H)-one], in that order: below 3 nM, 10 to 50 nM and 45 to 1500 nM.
Take `Cn1cnc2ccc(Sc3cnc(N4CCC5(CC4)Oc4ccccc4[C@H]5N)cn3)c(Cl)c2c1=O` [Example 51, (R)-6-((5-(3-amino-3H-spiro[benzofuran-2,4'-piperidin]-1'-yl)pyrazin-2-yl)thio)-5-chloro-3-methylquinazolin-4(3H)-one]: in data set [1], the Kp (as a rule, tissue or fluid exposure divided by exposure in the circulation) at 24 h is above 0.25.
In the case of `COC(C)Cn1ccc2ccc(Sc3cnc(N4CCC5(CC4)CO[C@@H](C)[C@H]5N)cn3)c(Cl)c2c1=O` (stereo partly drawn) [Example 14, 7-((5-((3S,4S)-4-amino-3-methyl-2-oxa-8-azaspiro[4.5]decan-8-yl)pyrazin-2-yl)thio)-8-chloro-2-(2-methoxypropyl)isoquinolin-1(2H)-one], the IC50 at SHP2 (setting [2]) is below 3 nM; in the data set with H358 cells it was below 10 nM.
`Cn1cnc2ccc(Sc3cnc(N4CCC5(CC4)Cc4ncsc4[C@H]5N)cn3)c(Cl)c2c1=O` [Example 2, (S)-6-((5-(6-amino-4,6-dihydrospiro[cyclopenta[d]thiazole-5,4'-piperidin]-1'-yl)pyrazin-2-yl)thio)-5-chloro-3-methylquinazolin-4(3H)-one]: the IC50 at SHP2 (read-out: PTPase assay (IC50); full length SHP2 100 pM activated with SHP2 activating peptide, DiFMUP 80 µM, 2 hours) was below 3 nM; with H358 cells it was below 10 nM; with phospho-ERK, below 45 nM.
In turn, `N[C@@H]1c2ccccc2OC12CCN(c1cnc(Sc3ccc4ncn(-c5ccccc5)c(=O)c4c3Cl)cn1)CC2` [Example 52, (R)-6-((5-(3-amino-3H-spiro[benzofuran-2,4'-piperidin]-1'-yl)pyrazin-2-yl)thio)-5-chloro-3-phenylquinazolin-4(3H)-one] returned a Kp at 24 h in data set [1] above 0.25.
Turning to `COC(C)(C)C(F)n1cnc2ccc(Sc3cnc(N4CCC5(CC4)CO[C@@H](C)[C@H]5N)cn3)c(Cl)c2c1=O` (stereo partly drawn) [Example 28, 6-((5-((3S,4S)-4-amino-3-methyl-2-oxa-8-azaspiro[4.5]decan-8-yl)pyrazin-2-yl)thio)-5-chloro-3-(1-fluoro-2-methoxy-2-methylpropyl)quinazolin-4(3H)-one], the IC50 on SHP2 (setting [2]) was below 3 nM; with H358 cells it was 10 to 50 nM; with phospho-ERK, 45 to 1500 nM.
